Laboratory results as given in patent US20260374766A1, “METHODS FOR TREATING CANCER” (Antares Therapeutics, Inc., priority 2022, published 2026).
Read-outs that look alike come from different tables or passages of the source.

Key:
[1] = target: T1, p53 Y220C mutant protein (amino acid residues 94-293) (Homo sapiens, UniProt P04637, Y220C); test: Surface Plasmon Resonance (SPR) assay, Kd_kinetic; assay type: binding; conditions: read-out: SPR P53 Y220C KD kinetic
T1 construct: p53 Y220C mutant protein (amino acid residues 94-293)
How it was run: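 Kinetic dissociation constants derived by 1:1 model fit of SPR data acquired at 16 or 20 °C, pH 7.5 Tris/NaCl running buffer with 1% DMSO.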

H1299 p53 Y220C = test: Cell Proliferation Assay (CellTiter-Glo, CTG), H1299 p53 Y220C (NClH1299-inducible p53 Y220C); assay type: cell-based; conditions: Homo sapiens, NCI-H1299, 120 h, CellTiter-Glo, 5 days
How it was run: (§1)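 Tet-One inducible p53 Y220C or R273H constructs were stably introduced into NCI-H1299 by lentiviral transduction; NUGC3 was used as is. Cells (250-500 per well) were exposed to compound for 5 days, then CellTiter-Glo was added for 10 min at room temperature and IC50 was calculated from luminescence.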

NUGC3 p53 Y220C = test: Cell Proliferation Assay (CellTiter-Glo, CTG), NUGC3 p53 Y220C; assay type: cell-based; conditions: Homo sapiens, NUGC-3, 120 h, CellTiter-Glo, 5 days
How it was run: as §1

p53 Y220C = p53 Y220C (Homo sapiens, UniProt P04637, Y220C); test: Luciferase Reporter Assay (Luc), p53 response element, NClH1299 cells with inducible p53 Y220C; assay type: cell-based; conditions: luciferase reporter, NClH1299 inducible p53 Y220C, 6 hour; for AC50: read-out: Luc P53 Y220C AC50
How it was run: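 Luminescence readout (One-Glo, 5 min shaking at RT, read at once) after 6 h compound exposure; cells pre-induced 24 h with 0.5 ug/mL doxycycline, 5,000/well.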

H1299 p53 R273H = test: Cell Proliferation Assay (CellTiter-Glo, CTG), H1299 p53 R273H (NClH1299-inducible p53 R273H); assay type: cell-based; conditions: Homo sapiens, NCI-H1299, 120 h, CellTiter-Glo, 5 days
How it was run: as §1

[2] = target: T1, p53 Y220C mutant protein (amino acid residues 94-293); test: Thermal Shift Assay (TSA), dTM; assay type: binding; conditions: for ΔTm at 10 µM: 10 uM compound; for ΔTm at 100 µM: 100 uM compound
How it was run: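 Recombinant p53 Y220C core (residues 94-293) at 5 μM was incubated with 10 μM or 100 μM compound for 3 hours at 20 °C in 20 mM HEPES pH7.4, 100 mM NaCl, 0.01% Pluronic F-127, 1% DMSO with 400-fold diluted Sypro Orange. Melting was followed from 30 °C to 50 °C at 0.03 °C/second, and TM came from a Boltzmann two-state fit.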

[3] = 10 uM tool compound as positive control
[4] = thermal shift, read-out: TSA P53 Y220C dTM (10 uM)
[5] = thermal shift, read-out: TSA P53 Y220C dTM (100 uM)
[6] = NClH1299-inducible p53 Y220C cells
[7] = NClH1299-inducible p53 R273H cells
[8] = p53 Y220C, read-out: TSA P53 Y220C dTM

| SMILES | Kd ([1]; SPR, kinetic KD, p53 Y220C) [nM] | IC50 (H1299 p53 Y220C; H1299 p53 Y220C) [nM] | IC50 (NUGC3 p53 Y220C; NUGC3 p53 Y220C) [nM] | Emax (p53 Y220C; [3]) [%] | AC50 (p53 Y220C) [nM] | IC50 (H1299 p53 R273H; H1299 p53 R273H) [nM] | ΔTm at 10 µM [2, 4] [°C] | ΔTm at 100 µM [2, 5] [°C] | Kd ([1]; SPR, p53 Y220C) [nM] | IC50 (H1299 p53 Y220C; [6]) [nM] | IC50 (NUGC3 p53 Y220C; NUGC3 cells) [nM] | AC50 (p53 Y220C; AC50) [nM] | Emax (p53 Y220C; Emax) [%] | IC50 (H1299 p53 R273H; [7]) [nM] | ΔTm at 10 µM [2, 8] [°C] | Kd [1] [nM] | ΔTm at 100 µM [2, 8] [°C] |
| --- | --- | --- | --- | --- | --- | --- | --- | --- | --- | --- | --- | --- | --- | --- | --- | --- | --- |
| CNC(=O)c1ccc(OC)c(NCC#Cc2nc3c(N[C@@H]4CCNC[C@@H]4F)cccn3c2CC(F)(F)F)c1 [Example 222] | < 10 | 1500 to 3000 | < 750 | < 70 | > 3000 | ≥ 10000 | ≥ 10 | ≥ 10 |  |  |  |  |  |  |  |  |  |
| CNC(=O)c1ccc(OC)c(NCC#Cc2nn3c(N[C@@H]4CCNC[C@@H]4F)cccc3c2SC(F)(F)F)n1 [Example 237] |  |  |  |  |  |  |  |  | < 10 | < 750 | < 750 | < 750 | 70 to 80 | 5000 to 8000 | ≥ 10 |  |  |
| CNC(=O)c1ccc(NCC#Cc2nc3c(N[C@H]4CCN(C)CC4(F)F)cccn3c2CC(F)(F)F)c(OC)c1 (single isomer, unassigned) [Example 38] | > 1000 | > 3000 | > 3000 | < 70 | > 3000 | ≥ 10000 |  | 5 to 10 |  |  |  |  |  |  |  |  |  |
| CNC(=O)c1ccc(OC)c(NCC#Cc2nn3c(N[C@@H]4CNC[C@@H]4F)cccc3c2SC(F)(F)F)c1 [Example 250] |  |  |  |  |  |  |  |  | < 10 | < 750 | < 750 | < 750 | 80 to 90 | 5000 to 8000 | ≥ 10 |  |  |
| CNC(=O)c1ccc(NCC#Cc2nc3c(N[C@@H]4CN(C)C[C@@H]4F)cccn3c2SC(F)(F)F)c(OC)c1 [Example 103, 4-{[3-(8-{[(3R,4S)-4-fluoro-1-methylpyrrolidin-3-yl]amino}-3-[(trifluoromethyl)sulfanyl]imidazo[1,2-a]pyridin-2-yl)prop-2-yn-1-yl]amino}-3-methoxy-N-methylbenzamide] | < 10 | < 750 | < 750 | 80 to 90 | < 750 | ≥ 10000 | ≥ 10 | ≥ 10 |  |  |  |  |  |  |  |  |  |
| CNC(=O)c1ccc(OC)c(NCC#Cc2cc3c(N[C@@H]4CCNC[C@@H]4F)nccn3c2SC(F)(F)F)n1 [Example 340] |  |  |  |  |  |  |  |  | < 10 | < 750 | < 750 | < 750 | 80 to 90 | ≥ 10000 | ≥ 10 |  |  |
| CNC(=O)c1ccc(OC)c(NCC#Cc2nc3c(N[C@@H]4CCNC[C@@H]4F)nccn3c2SC(F)(F)F)c1 [Example 307] |  |  |  |  |  |  |  |  | < 10 | < 750 | < 750 | < 750 | 80 to 90 | ≥ 10000 | ≥ 10 |  |  |
| COc1cc(S(C)(=O)=O)ccc1NCC#Cc1nc2c(N[C@@H]3CCN(C)C[C@@H]3F)cccn2c1CC(F)(F)F [Example 1, (3S,4R)-3-fluoro-N-(2-{3-[(4-methanesulfonyl-2-methoxyphenyl)amino]prop-1-yn-1-yl}-3-(2,2,2-trifluoroethyl)imidazo[1,2-a]pyridin-8-yl)-1-methylpiperidin-4-amine] | < 10 | < 750 | 750 to 1500 | 70 to 80 | 750 to 1500 | 8000 to 10000 |  | ≥ 10 |  |  |  |  |  |  |  |  |  |
| COc1cc(C(N)=O)ccc1NCC#Cc1nc2c(N[C@@H]3CCN(C)C[C@@H]3F)cccn2c1SC(F)(F)F [Example 165] | < 10 | < 750 | < 750 | > 90 | < 750 | 8000 to 10000 | ≥ 10 | ≥ 10 |  |  |  |  |  |  |  |  |  |
| COc1ccc(C(=O)NC2CC2)cc1NCC#Cc1nc2c(N[C@@H]3CCN(C)C[C@@H]3F)cccn2c1SC(F)(F)F [Example 109, N-cyclopropyl-3-{[3-(8-{[(3S,4R)-3-fluoro-1-methylpiperidin-4-yl]amino}-3-[(trifluoromethyl)sulfanyl]imidazo[1,2-a]pyridin-2-yl)prop-2-yn-1-yl]amino}-4-methoxybenzamide] | < 10 | < 750 | < 750 | 80 to 90 | < 750 | 8000 to 10000 | ≥ 10 | ≥ 10 |  |  |  |  |  |  |  |  |  |
| CNC(=O)c1ccc(OC)c(NCC#Cc2cc3c(N[C@@H]4CCN(C)C[C@@H]4F)cccn3c2SC(F)(F)F)n1 [Example 345] |  |  |  |  |  |  |  |  | < 10 | < 750 | < 750 | < 750 | 80 to 90 | 8000 to 10000 | ≥ 10 |  |  |
| CNC(=O)c1ccc(OC)c(NCC#Cc2nc3c(N[C@@H]4CCN(C)C[C@@H]4F)cccn3c2SC(F)(F)F)n1 [Example 158] |  | < 750 | < 750 | 80 to 90 | < 750 | 5000 to 8000 | ≥ 10 | ≥ 10 |  |  |  |  |  |  |  | < 10 |  |
| CNC(=O)c1ccc(OC)c(NCC#Cc2nc3c(N[C@H]4C[C@@H]5CC[C@H]4N5)cccn3c2SC(F)(F)F)c1 [Example 245] |  |  |  |  |  |  |  |  | < 10 | 1500 to 3000 | < 750 | 1500 to 3000 | < 70 | 8000 to 10000 | 5 to 10 |  | ≥ 10 |
| CNC(=O)c1ccc(OC)c(NCC#Cc2nn3c(N[C@H]4C[C@@H]5CC[C@@H](N5)[C@H]4F)cccc3c2SC(F)(F)F)c1 [Example 287] |  |  |  |  |  |  |  |  | < 10 | < 750 | < 750 | < 750 | 80 to 90 | < 5000 | ≥ 10 |  |  |
| CNC(=O)c1ccc(NCC#Cc2nc3c(N[C@@H]4CCn5nccc5C4)cccn3c2SC(F)(F)F)c(OC)c1 [Example 179] | 10 to 100 | 1500 to 3000 | 1500 to 3000 | < 70 | 1500 to 3000 | ≥ 10000 | 5 to 10 | 5 to 10 |  |  |  |  |  |  |  |  |  |
| CNC(=O)Nc1cc(NC2CCN(C)CC2)c2nc(C#CCNc3ccc(C(=O)NC)cc3OC)c(CC(F)(F)F)n2c1 [Example 44, 3-methoxy-N-methyl-4-[(3-{6-[(methylcarbamoyl)amino]-8-[(1-methylpiperidin-4-yl)amino]-3-(2,2,2-trifluoroethyl)imidazo[1,2-a]pyridin-2-yl}prop-2-yn-1-yl)amino]benzamide] | 100 to 1000 | > 3000 | > 3000 | < 70 | > 3000 | ≥ 10000 |  | 1 to 5 |  |  |  |  |  |  |  |  |  |
| CNC(=O)c1ccc(NCC#Cc2nc3c(N[C@@H]4CCNC[C@@H]4F)nccn3c2SC(F)(F)F)c(OC)c1 [Example 319] |  |  |  |  |  |  |  |  | < 10 | < 750 | < 750 | < 750 | > 90 | ≥ 10000 | ≥ 10 |  |  |
| CNC(=O)c1ccc(OC)c(NCC#Cc2nc3c(N[C@@H]4CN(C)C[C@@H]4F)cccn3c2SC(F)(F)F)c1 [Example 153] | < 10 | < 750 | < 750 | 80 to 90 | < 750 | ≥ 10000 | ≥ 10 | ≥ 10 |  |  |  |  |  |  |  |  |  |
| CCS(=O)(=O)c1ccc(NCC#Cc2nc3c(N[C@@H]4CCNC[C@@H]4F)cccn3c2SC(F)(F)F)c(OC)c1 [Example 80, (3S,4R)—N-[2-(3-{[4-(ethanesulfonyl)-2-methoxyphenyl]amino}prop-1-yn-1-yl)-3-[(trifluoromethyl)sulfanyl]imidazo[1,2-a]pyridin-8-yl]-3-fluoropiperidin-4-amine] | < 10 | < 750 | < 750 | 80 to 90 | < 750 | 5000 to 8000 |  | ≥ 10 |  |  |  |  |  |  |  |  |  |
